# Data published in patent US5925332A, “Radioimaging and radiochemotherapy phenolic thioether amines and acyl derivatives thereof for use in diagnosing and treating pigmentation disorders” (The Governors of the University of Alberta, priority 1992, dated 1999).
# Entries after “also recorded” stand apart in the source; their conditions may differ.
# How the values were obtained:
# B16F10 melanoma [1] = test: In vivo covalent binding of (14C)-NACAP to tissues of melanoma-bearing mice; conditions: female C57BL/6J mice, single i.p. injection, 48 hr, mean + S.D. (n = 3)
# Procedure: In vivo covalent binding of (^14 C)-N-acetyl-4-S-CAP was investigated in mice. Female C57BL/6J mice received a single intraperitoneal injection of 2.0 mmol/kg (^14 C)-N-acetyl-4-S-CAP compound. The animals were killed 48 hours later. The tissues were removed and the covalent binding was determined as follows.
# Five different tissues were examined for covalent binding of radioactively labelled N-acetyl-4-S-CAP intermediate(s). The maximum binding of N-acetyl-4-S-CAP was detected in the s.c. melanoma tumor and melanoma colony-bearing lung tissues. […]
# ^a Female C57BL/6J mice received a single intraperitoneal injection o
# […] (^14 C)NACAP. The animals were killed 48 hr later, the
# tissues were removed, and the covalent binding was determined as describe
# ^b The data are presented as the means + S.D. (n = 3).
# B16F10 melanoma [2] = test: In vivo biodistribution by whole-body autoradiography; set-up: species or system mouse
# Procedure: 48 hours after injection the animal was killed, frozen and prepared for sectioning. The 20-μm sections were freeze-dried and exposed to x-ray film for whole-body autoradiography.
# The s.c. melanoma tumor and the lung with melanoma colonies were the only organs displaying a significant accumulation of the radioactivity.
# melanoma tissue = test: Distribution of 4-S-CAP in radioimaging or radiochemotherapy; conditions: in vivo
# Excerpt: When the compounds of the formula (I) are used in radiochemotherapy they may be combined with suitable pharmaceutical excipients and carriers wherein the radioactive selected compounds are present in a biologically effective amount in the carriers. Suitable biologically, compatible carriers may be solutions when injected by either the IP or SC route. Suitable biologically, compatible carriers for injection include physiologically normal saline and other types of readily injectable solutions which are well understood by those skilled in the art and readily available. […] For purposes of injection, the concentration of the radiolabelled compound in the injectable solution is normally in the range of 200 to 1200 mg per kg of body weight where the preferred dosage is in the range of 300 mg to 500 mg per kg of body weight. In the following examples, further information is provided as to the amount of compounds injected for purposes of radioimaging.
# melanoma = conditions: mice in vivo; cited from earlier work
# epidermal melanocytes = conditions: topical application, cited from earlier work
# follicular melanocytes = conditions: cited from earlier work
# monoamineoxidase (MAO) = conditions: cited from earlier work; for General (non-specific) cytotoxicity: via aldehyde metabolite formed by plasma MAO
# [3] = Determination of NAP-TEA and N-Acetyl-4-S-CAP in plasma after i.p. injection; format: in vivo, C57BL/6J Black Mouse; conditions: NAP-TEA 300 mg/kg i.p., plasma at 5 and 20 minutes
# Procedure: A C57BL/6J Black Mouse was injected at 300 mg/kg body weight by i.p. administration of NAP-TEA. 100 μl of plasma was extracted from the mouse after 5 minutes of injection and after 20 minutes of injection. The plasma samples were treated in accordance with the procedure of Example 2. The plasma samples were passed through a Sep-Pak C18 cartridge in either 5% methanol:water to produce eluent 1 or 50% methanol/water to produce eluent 2. Eluent 2 had the aqueous methanol removed therefrom to provide a residue. The residue was redissolved in methanol/0.1% acetic acid and water in a ratio of 50:50 and subjected to HPLC for both the 5 minute and 20 minute plasma samples. […] The concentration of N-Acetyl-4-S-CAP in the 5 minute extracted sample being considerably greater than in the 20 minute extracted sample to indicate that in vivo NAP-TEA is deacylated to N-Acetyl-4-S-CAP which in turn is then taken up by the mouse melanocytes.
# HeLa = test: In vitro cytotoxicity, MTT assay, HeLa; format: cell-based; conditions: Homo sapiens, 120 h, 5 days
# Procedure: (§1) MTT assay in accordance with the standard procedure
# (§2) MTT solution (Sigma catalog No. M2128) was dissolved in PBS at 1 mg/ml and filtered to sterilize the solution. The solution was stored in the dark at 4° C. until used. The growing cells were harvested, counted and inoculated into 96 well microtiter plates (1-2×10^3 cells/well).After 24 h, drugs were applied to culture wells, and the cultures were incubated for 5 days at 37° C. At this time, 50 μl of MTT solution was added to microculture wells. After 4 h incubation at 37° C., supernatant was removed from each well. 150 μl of DMSO was added to solubilized the MTT-formazan product. After mixing gently, absorbance at 540 nm was measured with ELISA plate spectrophotometer.
# SK-MEL-23 = test: In vitro cytotoxicity, MTT assay, SK-MEL-23; format: cell-based; conditions: 120 h; SK-MEL-23, MTT, 5 days
# Procedure: as §1, §2
# UT amelanotic melanoma = test: In vitro cytotoxicity, MTT assay, UT amelanotic melanoma; format: cell-based; conditions: 120 h, 5 days
# Procedure: as §1, §2
# mushroom tyrosinase = test: Utilization with mushroom tyrosinase (remaining compound by HPLC); format: biochemical; conditions: 11 units tyrosinase, pH 6.8, 37° C.
# Procedure: A reaction mixture consisting of NAP-TEA (500 μmol) and of mushroom tyrosinase (11 units) in 1.0 ml of 0.05 M sodium phosphate buffer (pH 6.8) was incubated at 37° C. in a water bath. The reaction was stopped periodically by cooling with ice. Aliquots removed at set time intervals were rapidly cooled to 0° C. in an ice bath and the remaining NAP-TEA was measured using HPLC. HPLC instrument and conditions Water 600 E liquid chromatograph system Conditions: μBondapak C18, Radial-Pak Cartridge (Waters) Mobile phase; 70% MeOH/H2 O, 1 ml/min Detector; Waters Model 441 UV absorbance detector Detection; Wavelength 254 nm
# tyrosinase = conditions: cited from earlier work
# [4] = O-deacylation of NAP-TEA in mouse plasma in vitro; format: in vitro ADME; conditions: 10 μg in 100 μl mouse plasma, shaken one-half minute, HPLC
# Procedure: NAP-TEA was introduced to mouse plasma to determine by in vitro experimentation the extent to which NAP-TEA is deacetylated to form N-Acetyl-4-S-CAP. The procedure was as follows. Into 100 μl of mouse plasma, 10 μg of NAP-TEA was introduced. The mixture was shook for one-half of a minute and then passed through a Sep-Pak C18 cartridge in either 7 ml of 5% methanol/water to form eluent 1 or in 4 ml of 50% methanol/water to form eluent 2. Both eluents 1 and eluents 2 were collected. Aqueous methanol was removed from eluent 2 to provide a residue which was subjected to HPLC under the following conditions. […] The residue was mixed with methanol:water at 50:50 with a flow rate through the radiograph at 1 ml/min. The detector was a Water Associates Model 441 with detection by ultraviolet at 250 nm.
# [5] = tested on: follicular melanocytes (black hair); test: Melanocytotoxicity in vivo (depigmentation of black hair); conditions: 300 mg/kg i.p. daily for 14 days, plucked C57BL/6J black mice
# Procedure: Hairs were plucked manually from the back of 6-8 week old C57BL/6J black mice (4 mice). Starting on day 2, daily for 14 days NAP-TEA was injected i.p. The dose was 300 mg/kg body weight.
# hair follicles = test: Depigmenting effect on newborn black mice; format: in vivo, C57BL/6J black mice; conditions: single i.p. dose 300 mg/kg, 3 day old mice
# Procedure: Six newborn (3 day old) C57BL/6J black mice were injected i.p. with a single dose of 0.1 mL of NAP-TEA solution (300 mg/kg body weight).
# functioning melanocytes = test: In vivo melanocytotoxicity in pig, topical application, Dopa-positive melanocyte count; set-up: species or system Yucatan pig; conditions: topical twice a day for 8 weeks
# Procedure: Solutions of 15% NAP-TEA in DMSO(w/v) and of 15% NAP-TEA in 60% EtOH(w/v) were prepared for topical application to a Yucatan pig. NAP-TEA was applied to the back skin of the pig twice a day for 8 weeks. After 8 weeks, punch biopsy was performed from the application area and from normal skin. Specimens obtained were kept in 2N NaBr solution for 3 hours followed by separation of the epidermis from dermis. Specimens of epidermis were incubated for 3 hours in phosphate buffer (pH 7.4) containing L-Dopa. The specimens were fixed in 10% neutral formalin solution and then washed twice in PBS. Finally, the specimens were mounted in glycerol gel. The numbers of Dopa-positive melanocytes in 9 adjacent 1 mm^2 fields from each sample were counted.
# [6] = set-up: species or system animals; conditions: in vivo
# Procedure: Experimental tests on animals indicate per single dose toxicity levels in the range of 1,400 mg/kg of body weight for the preferred compound of formula (II), NAP-TEA.
smiles,measurement,setting,value
"CC(=O)NCCS[14c]1[14cH][14cH][14c](O)[14cH][14cH]1 [(14C)-NACAP, N-acetyl-4-S-cysteaminyl (U-^14 C) phenol]","Convalent Binding, B16F10 melanoma s.c. tumor",B16F10 melanoma [1],0.521 + 0.076 nmol covalently bound/kg of protein
same,"Convalent Binding, kidney",B16F10 melanoma [1],0.008 + 0.001 nmol covalently bound/kg of protein
same,"Convalent Binding, liver",B16F10 melanoma [1],0.013 + 0.003 nmol covalently bound/kg of protein
same,"Convalent Binding, lungs with B16F10 melanoma colonies",B16F10 melanoma [1],0.330 + 0.113 nmol covalently bound/kg of protein
same,"Convalent Binding, lungs without B16F10 melanoma colonies",B16F10 melanoma [1],0.010 + 0.001 nmol covalently bound/kg of protein
same,Radioactivity in normal organs by whole-body autoradiography,"B16F10 melanoma [2]; 48 hours after i.p. injection, mouse",not detectable in any normal organs except the lumen of the large intestine
same,Radioactivity in melanoma-bearing organs by whole-body autoradiography,"B16F10 melanoma [2]; mouse with s.c. B16F10 tumor and B16F10 lung colonies, single i.p. injection 5.0 μCi, 48 hours",showed radioactivity in infected organs
"NCCSc1ccc(O)cc1 [Compound 4-S-CAP, 4-S-cysteaminylphenol]",Tissue accumulation in radioimaging or radiochemotherapy,melanoma tissue,collects in the eye as well as in the melanoma tissue
same,"Antimelanoma effect (lifespan of melanoma-bearing mice, inhibition of melanoma growth)",melanoma,potent agent in prolonging the lifespan of melanoma-bearing mice
same,Inflammatory changes of the skin,epidermal melanocytes; guinea pigs,prominent
same,Depigmentation of black guinea pig skin,epidermal melanocytes,demonstrated depigmenting properties
same,Effect on albino follicles,follicular melanocytes; albino follicles,no effect on the albino follicles
same,Cytotoxicity on black hair follicles,follicular melanocytes; black follicles,demonstrated cytotoxicity in the depigmentation of black hair follicles
same,Substrate for monoamineoxidase (MAO),monoamineoxidase (MAO); plasma,substrate for monoamineoxidase (MAO)
same,General (non-specific) cytotoxicity,monoamineoxidase (MAO),high toxicity; also recorded: some general cytotoxicity
"NC(CSc1ccc(O)cc1)C(=O)O (stereo not drawn) [Compound 4-S-CP, 4-S-cysteinylphenol]","Antimelanoma effect (lifespan of melanoma-bearing mice, inhibition of melanoma growth)",melanoma,some inhibition of melanoma growth
"CC(=O)NCCSc1ccc(O)cc1 [N-Acetyl-4-S-CAP, N-acetyl-4-S-cysteaminylphenol]",Compound detected in plasma by HPLC after NAP-TEA injection,[3],evidence of N-Acetyl-4-S-CAP
same,IC50,HeLa,75 µg/mL
same,IC50,SK-MEL-23,25 µg/mL
same,IC50,UT amelanotic melanoma,12 µg/mL
same,Substrate of mushroom tyrosinase (concentration remaining in the reaction mixture),mushroom tyrosinase,dropped off rapidly over 25 minutes to almost zero amount after 50 minutes
same,"Antimelanoma effect (lifespan of melanoma-bearing mice, inhibition of melanoma growth)",melanoma,potent antimelanoma properties
same,General (non-specific) cytotoxicity,monoamineoxidase (MAO),absence of such cytotoxicity
same,Substrate of tyrosinase,tyrosinase,superior substrate
"CC(=O)NCCSc1ccc(OC(C)=O)cc1 [NAP-TEA, N-{2-((4-Acetoxyphenyl)-thio)ethyl}acetamide]",O-deacylation to N-Acetyl-4-S-CAP in mouse plasma,[4],readily deacylated by the mouse plasma
same,Compound detected in plasma by HPLC after NAP-TEA injection,[3],no evidence of NAP-TEA
same,IC50,HeLa,77 µg/mL
same,IC50,SK-MEL-23,31 µg/mL
same,IC50,UT amelanotic melanoma,14 µg/mL
same,Substrate of mushroom tyrosinase (concentration remaining in the reaction mixture),mushroom tyrosinase,not a substrate of mushroom tyrosinase
same,Depigmentation of replacement hair,[5],mice were depigmented with the new replacement hair being almost pure white
same,Depigmentation of hair follicles in newborn mice,hair follicles,depigmented in all hair follicles with the growing hair being light grey
same,Number of functioning melanocytes (Average of 9 fields),functioning melanocytes; 15% NAP-TEA in 60% EtOH,74 ± 25 /mm^2
same,Number of functioning melanocytes (Average of 9 fields),functioning melanocytes; 15% NAP-TEA in DMSO,32 ± 14 /mm^2
same,per single dose toxicity level,[6],"~1,400 mg/kg of body weight"
COC(=O)C(N)CSc1ccc(O)cc1 (stereo not drawn) [methyl ester of 4-S-CP],"Antimelanoma effect (lifespan of melanoma-bearing mice, inhibition of melanoma growth)",melanoma,some inhibition of melanoma growth
